Experimental data from patent US20260374754A1, “N-((ISOQUINOLIN-6-YL)METHYL)-1H-PYRAZOLE-4-CARBOXAMIDE DERIVATIVES AS PLASMA KALLIKREIN INHIBITORS FOR THE TREATMENT OF HEREDITARY ANGIODEMA” (Takeda Pharmaceutical Company Limited, priority 2022, published 2026).
Counter-ions that a name gives are not always drawn.

Biological target: human activated kallikrein enzyme (Homo sapiens, UniProt P03952)
Test: Inhibition of human activated plasma kallikrein, fluorogenic PFR-AMC substrate, 500 pM enzyme format
Format: biochemical
Settings: 500 pM activated kallikrein; 300 μM PFR-AMC; 30 min preincubation; 10 min room temperature; pH 7.5; read-out: Primary Dose Response Assay: Average EC50
Protocol: Compounds were evaluated for inhibition of the human activated kallikrein enzyme in two formats of an assay employing a fluorogenic peptide substrate. In one assay format, the concentrations of reagents were as follows: 20 mM Tris pH 7.5, 1 mM EDTA, 150 mM sodium chloride, 0.1% PEG-400, 0.1% Triton X-100, 500 pM activated kallikrein enzyme, 300 μM Pro-Phe-Arg-7-amido-4-methylcoumarin (PFR-AMC) substrate. Prior to reaction initiation with substrate, enzyme and inhibitors were preincubated for 30 min at room temperature. After initiation with substrate, reactions were incubated for 10 min at room temperature and fluorescence emission at 460 nm from 380 nm excitation measured with a microplate reader. In another assay format, the concentrations of reagents were as follows: 20 mM Tris pH 7.5, 1 mM EDTA, 150 mM sodium chloride, 0.1% PEG-400, 0.1% Triton X-100, 5 pM activated kallikrein enzyme, 300 uM PFR-AMC substrate. Prior to reaction initiation with substrate, enzyme and inhibitors were preincubated for 30 min at room temperature. After initiation with substrate, reactions were incubated for 18 hr at room temperature and fluorescence emission at 460 nm from 380 nm excitation measured with a microplate reader.
Table 35 provides the results of the assay in the format with 500 pM activated kallikrein assay.

Sequence of human activated kallikrein enzyme (P03952 391-638 limits assumed): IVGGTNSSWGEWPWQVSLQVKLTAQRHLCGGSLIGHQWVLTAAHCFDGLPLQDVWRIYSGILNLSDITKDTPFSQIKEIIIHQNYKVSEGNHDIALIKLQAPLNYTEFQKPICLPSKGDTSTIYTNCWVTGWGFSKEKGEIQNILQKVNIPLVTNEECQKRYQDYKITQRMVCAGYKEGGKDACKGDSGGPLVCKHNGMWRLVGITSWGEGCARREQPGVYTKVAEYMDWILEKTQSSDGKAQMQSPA
Sequence of human activated kallikrein enzyme (P03952 20-390 partner limits assumed): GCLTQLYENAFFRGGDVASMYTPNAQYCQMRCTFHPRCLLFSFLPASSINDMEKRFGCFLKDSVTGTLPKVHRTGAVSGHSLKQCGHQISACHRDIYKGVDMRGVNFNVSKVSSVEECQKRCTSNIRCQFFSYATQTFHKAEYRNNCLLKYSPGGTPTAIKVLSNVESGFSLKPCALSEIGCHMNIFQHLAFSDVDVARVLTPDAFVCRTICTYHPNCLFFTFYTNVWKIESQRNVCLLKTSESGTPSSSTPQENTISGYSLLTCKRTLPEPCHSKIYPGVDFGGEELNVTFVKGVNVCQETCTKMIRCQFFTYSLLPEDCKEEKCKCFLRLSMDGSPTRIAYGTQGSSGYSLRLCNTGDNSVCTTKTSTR

Compound	EC50 [nM]
Cc1cc2c(N)nccc2c(C)c1CNC(=O)c1cnn(Cc2cc3cc(Br)ccc3o2)c1 [Example 50, N-((1-amino-5,7-dimethylisoquinolin-6-yl)methyl)-1-((5-bromobenzofuran-2-yl)methyl)-1H-pyrazole-4-carboxamide]	1 to 10
Cc1cc2c(N)nccc2c(C)c1CNc1cc(NCc2ccc3ccccc3c2)ncn1 [Example 233, N4-((1-amino-5,7-dimethylisoquinolin-6-yl)methyl)-N6-(naphthalen-2-ylmethyl)pyrimidine-4,6-diamine]	10 to 100
COc1ccnc2ccc(CNc3cc(NCc4c(C)cc5c(N)nccc5c4C)ncn3)cc12 [Example 323, N^4-((1-amino-5,7-dimethylisoquinolin-6-yl)methyl)-N^6-((4-methoxyquinolin-6-yl)methyl)pyrimidine-4,6-diamine]	1 to 10
Cc1cc2c(N)nccc2c(C)c1CNc1cc(OC(C)c2ccc(Cn3cccn3)cc2)cnn1 (single isomer, unassigned) [Example 277, (S*)-6-(((5-(1-(4-((1H-pyrazol-1-yl)methyl)phenyl)ethoxy)pyridazin-3-yl)amino)methyl)-5,7-dimethylisoquinolin-1-amine]	10 to 100
Cc1cc2c(N)nccc2c(C)c1CNC(=O)c1cn(Cc2cn3cc(C4CC4)ccc3n2)nc1C(F)F [Example 199, N-((1-amino-5,7-dimethylisoquinolin-6-y1)methyl)-1-((6-cyclopropylimidazo[1,2-a]pyridin-2-y1)methyl)-3-(difluoromethyl)-1H-pyrazole-4-carboxamide]	< 1
Cc1cc2c(N)nccc2c(C)c1CNc1cc(OCc2ccc3c(cnn3C)c2)cnn1 [Example 413, 5,7-dimethyl-6-(((5-((1-methyl-1H-indazol-5-yl)methoxy)pyridazin-3-yl)amino)methyl)isoquinolin-1-amine]	1 to 10
Cc1cc2c(N)nccc2c(C)c1CNC(=O)c1cnn(Cc2cc3c(Cl)cccc3s2)c1 [Example 62, N-((1-amino-5,7-dimethylisoquinolin-6-yl)methyl)-1-((4-chlorobenzo[b]thiophen-2-yl)methyl)-1H-pyrazole-4-carboxamide]	1 to 10
Cc1cc2c(N)nccc2c(C)c1CNc1cc(NCc2ccc(Cn3cccn3)cc2F)cnn1 [Example 385, N^5-(4-((1H-pyrazol-1-yl)methyl)-2-fluorobenzyl)-N^3-((1-amino-5,7-dimethylisoquinolin-6-yl)methyl)pyridazine-3,5-diamine]	< 1
Cc1cccc(Cn2cc(C(=O)NCc3c(C)cc4c(N)nccc4c3C)cn2)c1 [Example 41, N-((1-amino-5,7-dimethylisoquinolin-6-yl)methyl)-1-(3-methylbenzyl)-1H-pyrazole-4-carboxamide]	10 to 100
Cc1cc2c(N)nccc2c(C)c1CNC(=O)c1cnn(Cc2ccc(CC(=O)N(C)C)c(C(F)(F)F)c2)c1 [Example 152, N-((1-amino-5,7-dimethylisoquinolin-6-yl)methyl)-1-(4-(2-(dimethylamino)-2-oxoethyl)-3-(trifluoromethyl)benzyl)-1H-pyrazole-4-carboxamide]	< 1
Cc1cc2c(N)nccc2c(C)c1CNc1cc(NCc2ccc(Cc3cc[nH]n3)cc2)ncn1 [Example 358, N^4-(4-((1H-pyrazol-3-yl)methyl)benzyl)-N^6-((1-amino-5,7-dimethylisoquinolin-6-yl)methyl)pyrimidine-4,6-diamine]	1 to 10
Cc1cc2c(N)nccc2c(C)c1CNC(=O)c1cnn(Cc2ccc3cnn(C)c3c2)c1 [Example 59, N-((1-amino-5,7-dimethylisoquinolin-6-yl)methyl)-1-((1-methyl-1H-indazol-6-yl)methyl)-1H-pyrazole-4-carboxamide]	1 to 10
Cc1cc2c(N)nccc2c(C)c1CNc1cc2c(cn1)c(F)cn2Cc1cc2cc(C3CC3)cnc2s1 [Example 286, 6-(((1-((5-cyclopropylthieno[2,3-b]pyridin-2-yl)methyl)-3-fluoro-1H-pyrrolo[3,2-c]pyridin-6-yl)amino)methyl)-5,7-dimethylisoquinolin-1-amine]	1 to 10
Cc1ccc2nc(CNc3cc(NCc4c(C)cc5c(N)nccc5c4C)ncn3)cn2c1 [Example 333, N^4-((1-amino-5,7-dimethylisoquinolin-6-yl)methyl)-N^6-((6-methylimidazo[1,2-a]pyridin-2-yl)methyl)pyrimidine-4,6-diamine]	< 1
Cc1cc2c(N)nccc2c(C)c1CNC(=O)c1cnn(Cc2cn3cc(C4CC4)c(Cl)cc3n2)c1 [Example 147, N-((1-amino-5,7-dimethylisoquinolin-6-yl)methyl)-1-((7-chloro-6-cyclopropylimidazo[1,2-a]pyridin-2-yl)methyl)-1H-pyrazole-4-carboxamide]	< 1
Cc1cc2c(N)nccc2c(C)c1CNC(=O)c1cnn(Cc2cn3c(C4CC4)cccc3n2)c1 [Example 137, N-((1-amino-5,7-dimethylisoquinolin-6-yl)methyl)-1-((5-cyclopropylimidazo[1,2-a]pyridin-2-yl)methyl)-1H-pyrazole-4-carboxamide]	1 to 10
COc1ccc2cc(Cn3cc(C(=O)NCc4c(C)cc5c(N)nccc5c4C)cn3)c(Cl)nc2c1 [Example 108, N-((1-amino-5,7-dimethylisoquinolin-6-yl)methyl)-1-((2-chloro-7-methoxyquinolin-3-yl)methyl)-1H-pyrazole-4-carboxamide]	< 1
Cc1cc2c(N)nccc2c(C)c1CNS(=O)(=O)c1cnn(Cc2cn3cc(C4CC4)ccc3n2)c1 [Example 490, N-((1-amino-5,7-dimethylisoquinolin-6-yl)methyl)-1-((6-cyclopropylimidazo[1,2-a]pyridin-2-yl)methyl)-1H-pyrazole-4-sulfonamide]	10 to 100
Cc1cc2c(N)nccc2c(C)c1CNc1cc(OCc2ccc(Cc3ccn(C)n3)cc2)cnn1 [Example 439, 5,7-dimethyl-6-(((5-((4-((1-methyl-1H-pyrazol-3-yl)methyl)benzyl)oxy)pyridazin-3-yl)amino)methyl)isoquinolin-1-amine]	< 1
Cc1cc2c(N)nccc2c(C)c1CNc1cc(NCc2cc(C)c(OCC(=O)N(C)C)c(C)c2)ncn1 [Example 348, 2-(4-(((6-(((1-amino-5,7-dimethylisoquinolin-6-yl)methyl)amino)pyrimidin-4-yl)amino)methyl)-2,6-dimethylphenoxy)-N,N-dimethylacetamide]	1 to 10
CCCCc1cc(COc2cc(NCc3c(C)cc4c(N)nccc4c3C)ncn2)cc2cc(Cl)c[n+]([O-])c12 [Example 399, 6-(((6-(((1-amino-5,7-dimethylisoquinolin-6-yl)methyl)amino)pyrimidin-4-yl)oxy)methyl)-8-butyl-3-chloroquinoline 1-oxide]	10 to 100
Cc1cc2c(N)nccc2c(C)c1CNC(=O)c1cnn(Cc2ccc(CC(=O)N(C)C)c(Cl)c2)c1 [Example 151, N-((1-amino-5,7-dimethylisoquinolin-6-yl)methyl)-1-(3-chloro-4-(2-(dimethylamino)-2-oxoethyl)benzyl)-1H-pyrazole-4-carboxamide]	< 1
Cc1cc2c(N)nccc2c(C)c1CNc1cc(NCc2ccc(OCC(=O)N3CCC3)cc2)ncn1 [Example 347, 2-(4-(((6-(((1-amino-5,7-dimethylisoquinolin-6-yl)methyl)amino)pyrimidin-4-yl)amino)methyl)phenoxy)-1-(azetidin-1-yl)ethan-1-one, formic acid salt]	< 1
Cc1cc2c(N)nccc2c(C)c1CNC(=O)c1cnn(Cc2ccc(Cc3nccs3)cc2)c1 [Example 166, N-((1-amino-5,7-dimethylisoquinolin-6-yl)methyl)-1-(4-(thiazol-2-ylmethyl)benzyl)-1H-pyrazole-4-carboxamide]	< 1
Cc1cc2c(N)nccc2c(C)c1CNC(=O)c1cnn(Cc2nc3ccccc3n2C(F)F)c1 [Example 68, N-((1-amino-5,7-dimethylisoquinolin-6-yl)methyl)-1-((1-(difluoromethyl)-1H-benzo[d]imidazol-2-yl)methyl)-1H-pyrazole-4-carboxamide]	10 to 100
Cc1cc2c(N)nccc2c(C)c1CNc1ncnc2oc(Cc3ccc4ncc(Cl)cc4c3)nc12 [Example 538, N-((1-amino-5,7-dimethylisoquinolin-6-yl)methyl)-2-((3-chloroquinolin-6-yl)methyl)oxazolo[5,4-d]pyrimidin-7-amine]	10 to 100
Cc1cc2cc(CNc3cc(NCc4c(C)cc5c(N)nccc5c4C)ncn3)cnc2cc1C [Example 325, N^4-((1-amino-5,7-dimethylisoquinolin-6-yl)methyl)-N^6-((6,7-dimethylquinolin-3-yl)methyl)pyrimidine-4,6-diamine]	1 to 10

Same assay, conditions: Primary Dose Response Assay: Average EC50, 500 pM activated kallikrein; 300 μM PFR-AMC; 30 min preincubation; 10 min room temperature; pH 7.5

Compound	EC50 [nM]
Cc1cc(CNc2cc(NCc3c(C)cc4c(N)nccc4c3C)ncn2)cc(C)c1CC(=O)N1CC2CC2C1 (stereo not shown) [Example 359, 2-(4-(((6-(((1-amino-5,7-dimethylisoquinolin-6-yl)methyl)amino)pyrimidin-4-yl)amino)methyl)-2,6-dimethylphenyl)-1-(3-azabicyclo[3.1.0]hexan-3-yl)ethan-1-one]	< 1
